Measured values published in PubChem BioAssay AID248 (DTP/NCI, 2004).
Values joined by “and” are separate entries in the source; they are usually repeats but may differ in a detail not shown here. Equal values may be shown once. Inconclusive results and toxic doses are left out. No stated cut-off is given here; in the data, active means T/C of 150% or more; inactive means T/C below 125%.

System: L1210 leukemia ip in BDF1 mice, survival T/C
Experiment: NCI In Vivo Anticancer Drug Screen. Data for tumor model L1210 Leukemia (intraperitoneal) in B6D2F1 (BDF1) mice
Conditions: endpoint: mean survival time, higher = longer survival
How it was run: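 Tumor cells were implanted, animals were treated, and survival was followed. The result divides the treated measurement by the vehicle-control measurement.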

[1] = dose: 70.0 mg/kg/injection, schedule: Q01DX009 (ip), vehicle: saline
[2] = dose: 140.0 mg/kg/injection, schedule: Q01DX009 (ip), vehicle: saline
[3] = dose: 100.0 mg/kg/injection, schedule: Q04DX002 (ip), vehicle: other
[4] = dose: 200.0 mg/kg/injection, schedule: Q04DX002 (ip), vehicle: other
[5] = dose: 400.0 mg/kg/injection, schedule: Q04DX002 (ip), vehicle: other
[6] = dose: 100.0 mg/kg/injection, schedule: Q01DX009 (ip), vehicle: saline
[7] = dose: 200.0 mg/kg/injection, schedule: Q01DX009 (ip), vehicle: saline
[8] = dose: 400.0 mg/kg/injection, schedule: Q01DX009 (ip), vehicle: saline
[9] = dose: 100.0 mg/kg/injection, schedule: Q01DX001 (ip), vehicle: saline
[10] = dose: 200.0 mg/kg/injection, schedule: Q01DX001 (ip), vehicle: saline
[11] = dose: 400.0 mg/kg/injection, schedule: Q01DX001 (ip), vehicle: saline
[12] = dose: 100.0 mg/kg/injection, schedule: Q01DX009 (ip), vehicle: Klucel (hydroxypropylcellulose) (HPC)
[13] = dose: 200.0 mg/kg/injection, schedule: Q01DX009 (ip), vehicle: Klucel (hydroxypropylcellulose) (HPC)
[14] = dose: 400.0 mg/kg/injection, schedule: Q01DX009 (ip), vehicle: Klucel (hydroxypropylcellulose) (HPC)

Measured: T/C

CCN(CC)CCSC(=S)N1c2ccccc2Sc2ccccc21
inactive: dose: 17.5 mg/kg/injection, schedule: Q01DX009 (ip), vehicle: saline 90 % of control | dose: 17.5 mg/kg/injection, schedule: Q04DX003 (ip), vehicle: Klucel (hydroxypropylcellulose) (HPC) 102 % of control | dose: 35.0 mg/kg/injection, schedule: Q01DX009 (ip), vehicle: saline 96 % of control | dose: 35.0 mg/kg/injection, schedule: Q04DX003 (ip), vehicle: Klucel (hydroxypropylcellulose) (HPC) 93 % of control | [1] 87 % of control | dose: 70.0 mg/kg/injection, schedule: Q04DX003 (ip), vehicle: Klucel (hydroxypropylcellulose) (HPC) 96 % of control | [2] 91 % of control | dose: 140.0 mg/kg/injection, schedule: Q04DX003 (ip), vehicle: Klucel (hydroxypropylcellulose) (HPC) 98 % of control | dose: 280.0 mg/kg/injection, schedule: Q04DX003 (ip), vehicle: Klucel (hydroxypropylcellulose) (HPC) 95 % of control

CCCCCS(=O)(=O)N1CCCCCC1
inactive: [3] 112 % of control | [4] 87 % of control | [5] 87 % of control

c1ccc(C(C(=Nc2ccc(Cc3ccc(N=C(C(c4ccccc4)c4ccccc4)N4CC4)cc3)cc2)N2CC2)c2ccccc2)cc1
inactive: [1] 103 % of control | [2] 104 % of control | dose: 280.0 mg/kg/injection, schedule: Q01DX009 (ip), vehicle: saline 93 % of control

Cc1c(NC(=O)Nc2ccc(C3=NCCCN3)cc2)cccc1NC(=O)Nc1ccc(C2=NCCCN2)cc1
inactive: dose: 4.0 mg/kg/injection, schedule: Q01DX Z (ip), vehicle: water 96 % of control | dose: 6.0 mg/kg/injection, schedule: Q01DX Z (ip), vehicle: water 121 % of control | dose: 8.0 mg/kg/injection, schedule: Q01DX Z (ip), vehicle: water 109 % of control | dose: 31.0 mg/kg/injection, schedule: Q01DX Z (oral), vehicle: water 113 % of control | dose: 125.0 mg/kg/injection, schedule: Q01DX Z (oral), vehicle: water 108 % of control
active: dose: 25.0 mg/kg/injection, schedule: Q01DX Z (ip), vehicle: water 215 % of control | dose: 50.0 mg/kg/injection, schedule: Q01DX Z (ip), vehicle: water 162 % of control | dose: 100.0 mg/kg/injection, schedule: Q01DX Z (ip), vehicle: water 191 % of control

C1CN(CCN2CCOCC2)CCO1
inactive: [6] 100 % of control | [7] 93 % of control | [8] 96 % of control

CC(C)C(N)C(=O)OC(=O)C(N)CCCCN (stereo unspecified)
inactive: dose: 12.5 mg/kg/injection, schedule: Q04DX002 (ip), vehicle: saline 107 % of control | dose: 25.0 mg/kg/injection, schedule: Q04DX002 (ip), vehicle: saline 104 % of control | dose: 50.0 mg/kg/injection, schedule: Q04DX002 (ip), vehicle: saline 101 % of control | [9] 108 % of control | [10] 101 % of control | [11] 98 % of control

NC1C2CC3CC(C2)CC1C3 (stereo unspecified)
inactive: dose: 5.0 mg/kg/injection, schedule: Q01DX001 (ip), vehicle: saline 102 % of control | dose: 10.0 mg/kg/injection, schedule: Q01DX001 (ip), vehicle: saline 98 % of control | dose: 20.0 mg/kg/injection, schedule: Q01DX001 (ip), vehicle: saline 107 % of control | dose: 40.0 mg/kg/injection, schedule: Q01DX001 (ip), vehicle: saline 96 % of control | dose: 75.0 mg/kg/injection, schedule: Q01DX001 (ip), vehicle: other 93 % of control | dose: 80.0 mg/kg/injection, schedule: Q01DX001 (ip), vehicle: saline 96 % of control

CC1CCCC(C)C1O (stereo unspecified)
inactive: [9] 103 % of control | [10] 101 % of control | [11] 103 % of control

CCOC(=O)c1cnc(SC)nc1NCCc1ccccc1
inactive: [12] 98 % of control | [13] 91 % of control | [14] 95 % of control

O=C1CCCCC1c1ccccc1 (stereo unspecified)
inactive: dose: 50.0 mg/kg/injection, schedule: Q04DX002 (ip), vehicle: other 99 % of control | [3] 92 % of control | dose: 100.0 mg/kg/injection, schedule: Q04DX003 (ip), vehicle: other 96 % of control | [4] 108 % of control | dose: 200.0 mg/kg/injection, schedule: Q04DX003 (ip), vehicle: other 95 % of control | [5] 99 % of control | dose: 400.0 mg/kg/injection, schedule: Q04DX003 (ip), vehicle: other 98 % of control

OC(CC(O)(C(F)(F)F)C(F)(F)F)c1cccs1 (stereo unspecified)
inactive: dose: 100.0 mg/kg/injection, schedule: Q04DX003 (ip), vehicle: saline with Tween-80 106 % of control | dose: 200.0 mg/kg/injection, schedule: Q04DX003 (ip), vehicle: saline with Tween-80 100 % of control | dose: 400.0 mg/kg/injection, schedule: Q04DX003 (ip), vehicle: saline with Tween-80 101 % of control

CC(C)(C)CC(C)(C)NCC#N
inactive: dose: 6.25 mg/kg/injection, schedule: Q04DX003 (ip), vehicle: Klucel (hydroxypropylcellulose) (HPC) 92 % of control | dose: 12.5 mg/kg/injection, schedule: Q04DX003 (ip), vehicle: Klucel (hydroxypropylcellulose) (HPC) 95 % of control | dose: 25.0 mg/kg/injection, schedule: Q04DX003 (ip), vehicle: Klucel (hydroxypropylcellulose) (HPC) 92 % of control and 96 % of control

CCc1ccccc1NC(=O)Nc1ccccc1
inactive: [12] 94 % of control | dose: 100.0 mg/kg/injection, schedule: Q04DX003 (ip), vehicle: Klucel (hydroxypropylcellulose) (HPC) 103 % of control | [13] 98 % of control | dose: 200.0 mg/kg/injection, schedule: Q04DX003 (ip), vehicle: Klucel (hydroxypropylcellulose) (HPC) 94 % of control | [14] 105 % of control | dose: 400.0 mg/kg/injection, schedule: Q04DX003 (ip), vehicle: Klucel (hydroxypropylcellulose) (HPC) 95 % of control

O=P(c1ccccc1)(c1ccccc1)N1CC1c1ccccc1 (stereo unspecified)
inactive: dose: 75.0 mg/kg/injection, schedule: Q01DX001 (ip), vehicle: carboxymethylcellulose (CMC) 96 % of control | dose: 150.0 mg/kg/injection, schedule: Q01DX001 (ip), vehicle: carboxymethylcellulose (CMC) 95 % of control | dose: 300.0 mg/kg/injection, schedule: Q01DX001 (ip), vehicle: carboxymethylcellulose (CMC) 90 % of control

CC1(C)CC2(C)CC(=O)C1C(C(=O)O)C2C(=O)O (stereo unspecified)
inactive: [9] 98 % of control | [6] 93 % of control | dose: 100.0 mg/kg/injection, schedule: Q04DX003 (ip), vehicle: saline 96 % of control | [10] 90 % of control | [7] 93 % of control | dose: 200.0 mg/kg/injection, schedule: Q04DX003 (ip), vehicle: saline 91 % of control | [11] 91 % of control | [8] 92 % of control | dose: 400.0 mg/kg/injection, schedule: Q04DX003 (ip), vehicle: saline 89 % of control

Cc1ccc(Cl)c(NC(=O)Nc2ccccc2Cl)c1
inactive: [12] 94 % of control and 90 % of control | [13] 93 % of control | [14] 88 % of control and 89 % of control

CCCCCCCCN(CCCCCCCC)CC(=O)c1ccc2cc(Br)c3ccccc3c2c1
inactive: dose: 100.0 mg/kg/injection, schedule: Q01DX001 (ip), vehicle: alcohol 101 % of control | dose: 200.0 mg/kg/injection, schedule: Q01DX001 (ip), vehicle: alcohol 100 % of control | dose: 400.0 mg/kg/injection, schedule: Q01DX001 (ip), vehicle: alcohol 103 % of control

Cc1nc(C)c(C(=O)N/N=C/c2ccc(N(CCCl)CCCl)cc2)s1
inactive: dose: 50.0 mg/kg/injection, schedule: Q01DX001 (ip), vehicle: carboxymethylcellulose (CMC) 94 % of control | dose: 100.0 mg/kg/injection, schedule: Q01DX001 (ip), vehicle: carboxymethylcellulose (CMC) 94 % of control | dose: 200.0 mg/kg/injection, schedule: Q01DX001 (ip), vehicle: carboxymethylcellulose (CMC) 97 % of control | dose: 400.0 mg/kg/injection, schedule: Q01DX001 (ip), vehicle: carboxymethylcellulose (CMC) 94 % of control

C=CCOc1c(Cl)cc(Cl)cc1Cl
inactive: [9] 100 % of control | [10] 100 % of control | [11] 100 % of control

O=C1Nc2ccc(C(=O)O)c(O)c2C1=O
inactive: dose: 50.0 mg/kg/injection, schedule: Q01DX001 (ip), vehicle: Klucel (hydroxypropylcellulose) (HPC) 112 % of control | dose: 100.0 mg/kg/injection, schedule: Q01DX001 (ip), vehicle: Klucel (hydroxypropylcellulose) (HPC) 112 % of control | dose: 200.0 mg/kg/injection, schedule: Q01DX001 (ip), vehicle: Klucel (hydroxypropylcellulose) (HPC) 102 % of control
